Assay results as given in PubChem BioAssay (NCI).
Values joined by “and” are separate entries in the source; they are usually repeats but may differ in a detail not shown here. Identical values can stand only once.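 Results reflect a 48-hour exposure of cells in 96-well plates to compound at five concentrations. The concentration for 50% growth inhibition is given as GI50. TGI denotes the concentration required for complete inhibition of growth.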

Tests used:
Assay in all cases: inhibition of tumour cell growth, NCI panel, 48 h
PC-3 prostate = system: PC-3 prostate
NCI-H23 lung = system: NCI-H23 lung
HCT-15 colon = system: HCT-15 colon
MDA-N = system: MDA-N
LOX IMVI melanoma = system: LOX IMVI melanoma
SNB-19 CNS = system: SNB-19 CNS
UACC-257 melanoma = system: UACC-257 melanoma
EKVX NSCLC = system: EKVX NSCLC
CCRF-CEM leukemia = system: CCRF-CEM leukemia
M14 melanoma = system: M14 melanoma
A498 renal = system: A498 renal
MALME-3M melanoma = system: MALME-3M melanoma

Compound | TGI (PC-3 prostate) | TGI (NCI-H23 lung) | TGI (HCT-15 colon) | TGI (MDA-N) | TGI (LOX IMVI melanoma) | TGI (SNB-19 CNS) | TGI (UACC-257 melanoma) | TGI (EKVX NSCLC) | TGI (CCRF-CEM leukemia) | TGI (M14 melanoma) | TGI (A498 renal) | TGI (MALME-3M melanoma) | GI50 (A498 renal) | GI50 (PC-3 prostate) | GI50 (NCI-H23 lung) | GI50 (HCT-15 colon) | GI50 (LOX IMVI melanoma) | GI50 (EKVX NSCLC) | GI50 (CCRF-CEM leukemia)
CCOC(=O)CNC(=O)C(CSC(=O)N(O)c1ccc(Cl)cc1)NC(=O)CCC(N)C(=O)OCC (centres undefined) | > 50 µM | > 50 µM | > 50 µM | > 50 µM | > 50 µM | > 50 µM | > 50 µM | > 50 µM | > 50 µM | > 50 µM |  |  |  |  |  |  |  |  | 
O=C1Cc2c([nH]c3ccc(Br)cc23)-c2cc(O)c(O)cc2N1 | > 100 µM | > 100 µM | > 100 µM | > 100 µM | > 100 µM | > 100 µM | > 100 µM | > 100 µM |  | > 100 µM | > 100 µM |  |  |  |  |  |  |  | 
O=C(/C=C/c1ccc(Oc2cc(C(=O)/C=C/c3ccc(O)cc3)c(O)cc2O)cc1)c1ccc(O)cc1O | 24.9 µM | 28.6 µM | 19.4 µM |  | 28.6 µM | 30.9 µM | 28.4 µM | 27.9 µM | 10.8 µM | 24.1 µM | 14.1 µM | 26.6 µM |  |  |  |  |  |  | 
COc1c(=O)cc2cc[nH]c3ccn(C)c1c23 | > 100 µM | > 100 µM | > 100 µM | > 100 µM | > 100 µM | > 100 µM | > 100 µM | > 100 µM |  | > 100 µM | > 100 µM |  |  |  |  |  |  |  | 
NC(=O)C(=O)C1CCC2=C(Sc3ccccc3N2)C1=O (centres undefined) |  | > 100 µM | > 100 µM |  | > 100 µM | > 100 µM | > 100 µM | > 100 µM |  | > 100 µM | > 100 µM | > 100 µM |  |  |  |  |  |  | 
NS(=O)(=O)c1nnc(NS(=O)(=O)C(F)(F)F)s1 | > 100 µM | > 100 µM | > 100 µM |  |  | > 100 µM |  | > 100 µM |  | > 100 µM | > 100 µM | > 100 µM |  |  |  |  |  |  | 
CCC1OC2C(CC=C(C)C)=C3OC(C)(O)C(C)(CC)C(OC(C)=O)C3=C3OC(=O)C=C1C32 (centres undefined) | > 100 µM | 75.5 µM | > 100 µM |  | 48.8 µM | 63.2 µM | 53.7 µM | > 100 µM | > 100 µM | > 100 µM | > 100 µM | 49.3 µM |  |  |  |  |  |  | 
Cc1ccc2nc(N/N=C/c3sccc3C)cc(C)c2c1 | > 100 µM | > 100 µM | > 100 µM | > 100 µM | > 100 µM | > 100 µM | > 100 µM | > 100 µM | > 100 µM | > 100 µM | > 100 µM |  |  |  |  |  |  |  | 
CN(C)C(=NCc1ccccc1)NC#N |  | > 100 µM | > 100 µM |  | > 100 µM | > 100 µM | > 100 µM | > 100 µM |  | > 100 µM |  |  |  |  |  |  |  |  | 
COc1ccc2c(c1)c1c(n2CCN(C)C)-c2ccccc2CC1 | 25.2 µM | 31.9 µM | 26.8 µM | 30.5 µM | 33.5 µM | 35.5 µM | 30.3 µM | 24.4 µM | 38.6 µM | 29.3 µM |  | 35.5 µM |  |  |  |  |  |  | 
Cc1ccc(-c2nc(N/N=C/C=C/c3ccccc3)c3ccccc3n2)cc1 | > 100 µM | > 100 µM | > 100 µM | > 100 µM | > 100 µM | > 100 µM | > 100 µM | 51.8 µM | > 100 µM | > 100 µM |  | > 100 µM |  |  |  |  |  |  | 
COc1ccc(N2C(=O)/C(=C\c3cc(OC)c(OC)c(OC)c3)SC2c2ccccc2)cc1 (centres undefined) |  | > 100 µM | > 100 µM | > 100 µM | > 100 µM | > 100 µM | > 100 µM | > 100 µM | > 100 µM | > 100 µM | > 100 µM | > 100 µM |  |  |  |  |  |  | 
CCOP1(=O)C=C(C)C(Cl)=C(C)C1 (centres undefined) |  | 46.2 µM | 73.7 µM |  | 50.4 µM | > 100 µM | 88.7 µM | > 100 µM | 59.2 µM | 70.9 µM |  |  |  |  |  |  |  |  | 
C/C(=C\CBr)CCC(Br)C(C)(C)Cl (centres undefined) |  | > 100 µM | > 100 µM |  | > 100 µM |  | > 100 µM |  |  | > 100 µM |  | > 100 µM |  |  |  |  |  |  | 
CCN(CC)c1ccc2c(c1)Oc1ccc(N(CC)CC)cc1C21Oc2ccccc2-c2c1c1ccccc1n2CC (centres undefined) |  | 8.01 µM | > 100 µM |  | > 100 µM | > 100 µM | > 100 µM | > 100 µM | > 100 µM | > 100 µM | > 100 µM | 9.27 µM |  |  |  |  |  |  | 
COc1ccc(/C(Br)=C2\OC(=O)c3ccccc32)cc1 | > 10 µM | > 10 µM | > 10 µM | > 10 µM | > 10 µM | > 10 µM | > 10 µM | > 10 µM | > 10 µM | > 10 µM |  |  |  |  |  |  |  |  | 

Compound | TGI (PC-3 prostate) | TGI (NCI-H23 lung) | TGI (HCT-15 colon) | TGI (MDA-N) | TGI (LOX IMVI melanoma) | TGI (SNB-19 CNS) | TGI (UACC-257 melanoma) | TGI (EKVX NSCLC) | TGI (CCRF-CEM leukemia) | TGI (M14 melanoma) | TGI (A498 renal) | TGI (MALME-3M melanoma) | GI50 (A498 renal) | GI50 (PC-3 prostate) | GI50 (NCI-H23 lung) | GI50 (HCT-15 colon) | GI50 (LOX IMVI melanoma) | GI50 (EKVX NSCLC) | GI50 (CCRF-CEM leukemia)
C/C=C/C#CC#C/C=C/C=C/C(O)CCO (centres undefined) |  | > 23.1 µM | > 23.1 µM |  | > 23.1 µM | > 23.1 µM | > 23.1 µM | > 23.1 µM | > 23.1 µM | > 23.1 µM |  | > 23.1 µM |  |  |  |  |  |  | 
NNC(=O)c1c(-c2cccnc2)cnc2ccccc12 | > 100 µM | > 100 µM | > 100 µM | > 100 µM |  | > 100 µM | > 100 µM | > 100 µM | > 100 µM | > 100 µM |  | > 100 µM |  |  |  |  |  |  | 
[O-]c1c2cc(-[n+]3c(-c4ccccc4)cc(-c4ccccc4)cc3-c3ccccc3)cc1COCCOCCOCCOCCOC2 |  | > 100 µM | > 100 µM |  | > 100 µM | > 100 µM | 82.5 µM | > 100 µM | > 100 µM | > 100 µM |  | 98.3 µM |  |  |  |  |  |  | 
Cc1nc2ccc(C(F)(F)F)cc2nc1NCc1ccc(Cl)c(Cl)c1 | 25.6 µM | 30.9 µM | 25.3 µM | 32 µM | 29.6 µM | 36.6 µM | 30.1 µM | 27.4 µM | 36.6 µM |  |  | 32 µM |  |  |  |  |  |  | 
N#Cc1c2c(c(N)oc1=O)C(c1ccccc1)CC(=O)N2 (centres undefined) | > 100 µM | > 100 µM | > 100 µM | > 100 µM | > 100 µM | > 100 µM | > 100 µM | > 100 µM | > 100 µM | > 100 µM |  | > 100 µM |  |  |  |  |  |  | 
O=[N+]([O-])c1cccc2nc3ccccc3c(NCCCNc3c4ccccc4nc4cccc([N+](=O)[O-])c34)c12 | 0.143 µM | 0.248 µM |  |  | > 100 µM | 0.163 µM | 0.329 µM | 0.0975 µM | 0.162 µM | 0.0744 µM |  | 0.329 µM |  |  |  |  |  |  | 
O=[N+]([O-])c1ccc(OC2CC3C4C=CC3C2C4)c([N+](=O)[O-])c1 (centres undefined) | > 100 µM | > 100 µM | > 100 µM |  | > 100 µM | > 100 µM | > 100 µM | > 100 µM | > 100 µM | > 100 µM | > 100 µM | > 100 µM | 96.5 µM and > 31.6 µM | > 100 µM | > 100 µM and 26.8 µM | > 100 µM | > 100 µM | 56.5 µM and 22 µM | > 100 µM and 24 µM
[N-]=[N+]=NI1OC(=O)c2ccccc21 | > 100 µM | > 100 µM | > 100 µM |  | > 100 µM | > 100 µM | > 100 µM | > 100 µM | > 100 µM | > 100 µM | > 100 µM |  |  |  |  |  |  |  | 
Nc1c([N+](=O)[O-])nc(Cl)c2nncn12 |  | > 100 µM | 42.4 µM |  | > 61.1 µM | > 100 µM | > 100 µM | > 100 µM | > 68.2 µM | > 100 µM | > 100 µM | > 100 µM |  |  |  |  |  |  | 
CC1=NN(c2nc(N)nc(/C(C#N)=C\c3csc([N+](=O)[O-])c3)n2)C(C)(C)C1 | 41.5 µM | 97.5 µM | > 100 µM | 98.9 µM | > 100 µM |  | > 100 µM | 90.1 µM | > 100 µM | > 100 µM | > 100 µM |  |  |  |  |  |  |  | 
CC1=C(O)C2=C(C(=O)C1=O)[C@@H](C)CC[C@@H]2[C@@H](C)C/C=C/C(C)(C)O | > 100 µM | > 100 µM | > 100 µM | > 100 µM | > 100 µM | > 100 µM | > 100 µM |  | > 100 µM | > 100 µM | > 100 µM |  |  |  |  |  |  |  | 
CCc1c(C)c(C#N)c(=S)n(C2OC(COC(C)=O)C(OC(C)=O)C(OC(C)=O)C2OC(C)=O)c1-c1ccccc1 (centres undefined) |  | > 31.6 µM | > 31.6 µM | > 31.6 µM | > 31.6 µM |  | > 31.6 µM | > 100 µM | > 100 µM | > 31.6 µM | > 31.6 µM | > 31.6 µM |  |  |  |  |  |  | 
CC1(C)OCC([C@H]2O[C@@H](CC(=S)NCCCCCCCCCCCCNC(=S)C[C@H]3O[C@@H](C4COC(C)(C)O4)[C@H]4OC(C)(C)O[C@H]43)[C@H]3OC(C)(C)O[C@H]32)O1 (some centres undefined) | > 100 µM | > 100 µM | > 100 µM | > 100 µM | > 100 µM |  | > 100 µM | > 100 µM |  | > 100 µM | > 100 µM |  |  |  |  |  |  |  | 
CCOC(=O)C1(F)S(=O)(=O)OCCOS1(=O)=O | > 100 µM | > 100 µM | > 100 µM | > 100 µM | > 100 µM | > 100 µM | > 100 µM | > 100 µM |  | > 100 µM |  | > 100 µM |  |  |  |  |  |  | 
O=C(CCC1C(=O)NC(=S)NC1=O)c1ccc2ccccc2c1 |  | > 100 µM | > 100 µM |  | > 100 µM | > 100 µM | > 100 µM | > 100 µM | > 100 µM | > 100 µM | > 100 µM | > 100 µM |  |  |  |  |  |  | 
